Laboratory results: US5028596A, “1-(β-D-arabinofuranosyl)-5-propynyluracil for treatment of VZV infections” (Burroughs Wellcome Co., priority 1987, dated 1991)

How the values were obtained:
[1] = system: vaccinia and herpes simplex; conditions: in vitro, literature; cited from earlier work
[2] = system: Varicella zoster virus (VZV); assay: VZV plaque reduction assay in MRC5 cells (without agarose overlay); assay type: cell-based
Description: (§1) Human cytomegalovirus (HCMV) is assayed in monolayers of either MRC5 cells (human embryonic lung) or Detroit 532 cells (human foreskin fibroblasts) in multiwell trays. Activity of compounds is determined in the plaque reduction assay, in which a cell monolayer is infected with a suspension of HCMV, and then overlaid with nutrient agarose in the form of a gel to ensure that there is no spread of virus throughout the culture. A range of concentrations of compound of known molarity was incorporated in the nutrient agarose overlay. Plaque numbers of each concentration are expressed as percentage of the control and dose-response curve is drawn. From this curve the 50% inhibitory concentration (IC50) is estimated. Varicella zoster virus (VZV) is assayed in MRC5 cells by a similar method of that of MCMV with the omission of the agarose overlay.

[3] = system: Human cytomegalovirus (HCMV); assay: HCMV plaque reduction assay in MRC5 or Detroit 532 cells; assay type: cell-based
Description: as §1, with “estimated.” for “estimated. Varicella zoster virus (VZV) is assayed in MRC5 cells by a similar method of that of MCMV with the omission of the agarose overlay.”

[4] = Cell growth inhibition assay (cell toxicity, tetrazolium dye uptake); assay type: cell-based; conditions: monkey; Vero cells; 50% inhibition of cell viability at 96 hours; read-out: CCID50 at 96 hr.
Description: Cell toxicity is assessed in a cell growth inhibition assay. Subconfluent cultures of Vero cells grown on 96-well microtiter dishes are exposed to different dilutions of drug, and cell viability determined daily on replicate cultures using uptake of a tetrazolium dye (MIT). The concentration required for a 50% inhibition of cell viability at 96 hours is termed CCID50.

**Q.** With C#Cc1cn([C@H]2C[C@H](O)[C@@H](CO)O2)c(=O)[nH]c1=O [2'-deoxy-5-ethynyluridine] as the molecule, how does the “antiviral activity against vaccinia and herpes simplex (in words)” value [1] read?
**A.** Its value is “did not demonstrate any effect of use in human medicinal chemotherapy”.

**Q.** Which results are given for CC#Cc1cn([C@H]2C[C@H](O)[C@@H](CO)O2)c(=O)[nH]c1=O [Example 1, 2'-Deoxy-5-propynyluridine]?
**A.** IC50 ([2]; Human alphaherpesvirus 3, MRC5, MRC5 cells, plaque reduction): 1 µM; activity against VZV (in words) ([2]; qualitative statement): potent anti-VZV activity; IC50 ([3]; Human betaherpesvirus 5, MRC5, MRC5 or Detroit 532 cells, plaque reduction): > 16 µM; CC50 at 96 h [4]: > 500 µM

**Q.** For C#Cc1cn([C@H]2C[C@H](O)[C@@H](CO)O2)c(=O)nc1N [Example 3, 2'-Deoxy-5-ethynylcytidine], which “activity against CMV (in words)” value ([3]; qualitative statement) is on record?
**A.** The value was “high activity against CMV”.

**Q.** For C#Cc1cn([C@H]2C[C@H](OC(C)=O)[C@@H](COC(C)=O)O2)c(=O)nc1N [Example 2, 2'-Deoxy-3',5'-di-O-acetyl-5-ethynylcytidine], which CC50 at 96 h [4] is on record?
**A.** The CC50 at 96 h was > 500 µM.
